Results published in patent publication US7192918B2, “Tripeptide and tetrapeptide sulfones” (Telik, Inc., priority 2005, dated 2007).
Entries after “also recorded” stand apart in the source; their conditions may differ.

Experiments:
[1] = biological target: T1, Recombinant human GST A1-1 (Homo sapiens, UniProt P08263); test: Inhibition of glutathione S-transferase isoenzyme GST A1-1 (CDNB/GSH, absorbance at 340 nm); assay type: biochemical; details: diacids (row number n = compound nA), pH 6.5, 2% DMSO
T1 construct: purchased EMD Biosciences, Inc., San Diego, Calif., U.S.A
T1 sequence (P08263 1-222): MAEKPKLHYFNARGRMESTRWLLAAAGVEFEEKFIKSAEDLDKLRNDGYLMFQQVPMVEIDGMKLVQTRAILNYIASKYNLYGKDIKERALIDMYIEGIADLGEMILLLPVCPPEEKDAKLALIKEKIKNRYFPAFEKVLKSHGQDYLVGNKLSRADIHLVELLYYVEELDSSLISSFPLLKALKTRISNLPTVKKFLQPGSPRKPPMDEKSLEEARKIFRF
Method: (§1) In vitro Example 1. Inhibition of glutathione S-transferase isoenzymes. […] For each assay, the test compound and GSH were added to the isoenzyme. Immediately after the addition of CDNB solution to the isoenzyme/compound/GSH solution, the absorbance at 340 nm was recorded continuously for 5 min on a SpectraMax plate reader (Molecular Devices, Inc., Sunnyvale, Calif., U.S.A.). The GST inhibitory activity of each compound was calculated from the slopes of the absorbance/time curves at the various concentrations of test compound. All assays were conducted in duplicate wells, with DMSO control, with the final DMSO concentration maintained at 2%.

[2] = biological target: T2, Recombinant human GST P1-1 (Homo sapiens, UniProt P09211); test: Inhibition of glutathione S-transferase isoenzyme GST P1-1 (CDNB/GSH, absorbance at 340 nm); assay type: biochemical; details: diacids (row number n = compound nA), pH 6.5, 2% DMSO
T2 construct: purchased EMD Biosciences, Inc., San Diego, Calif., U.S.A
T2 sequence (P09211 2-210 limits assumed): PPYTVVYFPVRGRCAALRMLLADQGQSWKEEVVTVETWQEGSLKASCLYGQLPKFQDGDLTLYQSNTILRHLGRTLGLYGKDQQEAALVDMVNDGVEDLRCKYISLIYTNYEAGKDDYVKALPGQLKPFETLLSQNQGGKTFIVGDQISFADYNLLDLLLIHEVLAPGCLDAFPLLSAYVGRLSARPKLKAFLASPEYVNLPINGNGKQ
Method: as §1

[3] = biological target: T3, Recombinant human GST M1-1 (Homo sapiens, UniProt P09488); test: Inhibition of glutathione S-transferase isoenzyme GST M1-1 (CDNB/GSH, absorbance at 340 nm); assay type: biochemical; details: diacids (row number n = compound nA), pH 6.5, 2% DMSO
T3 construct: purchased EMD Biosciences, Inc., San Diego, Calif., U.S.A
T3 sequence (P09488 2-218 limits assumed): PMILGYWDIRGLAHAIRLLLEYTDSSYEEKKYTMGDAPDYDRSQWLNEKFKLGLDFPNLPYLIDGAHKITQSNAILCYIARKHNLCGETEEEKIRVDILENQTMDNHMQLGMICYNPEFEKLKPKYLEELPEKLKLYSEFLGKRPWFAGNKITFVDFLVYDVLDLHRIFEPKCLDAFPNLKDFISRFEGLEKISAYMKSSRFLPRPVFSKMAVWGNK
Method: as §1

[4] = both in vitro and in vivo; cited from earlier work
[5] = Phase II, interim results; cited from earlier work
HL-60 cells [6] = test: Enhancement of differentiation of HL-60 cells (CD11b surface expression, flow cytometry); assay type: cell-based, human; details: diethyl esters, 24 hours
Method: Some of the diethyl ester compounds of this invention were also tested for their ability to enhance the differentiation of HL-60 cells. This illustrates the beneficial effect of the compounds of this invention in stimulating differentiation of the HL-60 human leukemia cell line in vitro. […] The cells were harvested by centrifugation (1250 rpm for 5 min at 20° C.) and washed with 2 mL ice-cold phosphate-buffered saline (PBS) containing 2% FBS, then stained with 10 μL phycoerythrin-conjugated anti-CD11b antibody or 10 μL phycoerythrin-conjugated isotype control antibody. After standing for 30 min on ice, the cells were re-suspended in 2 mL ice-cold PBS containing 2% FBS. The cells were harvested by centrifugation (1250 rpm for 5 min at 20° C.) and resuspended in 0.4 mL PBS containing 2% FBS. The specific cell surface expression of CD11b, a marker for granulocytes and monocytes, was detected by flow cytometry using a FACSCalibur analyzer (BD Biosciences). All assays were conducted in triplicate, with DMSO control. The extent of differentiation was expressed as a multiple of the signal from the DMSO control.

HL-60 cells [7] = details: background statement; cited from earlier work

Compound | IC50 [1] [µM] | IC50 [2] [µM] | IC50 [3] [µM] | Potentiation of the activity of cytotoxic agents [4] | Hematologic response in humans [5] | Tolerability in MDS patients [5] | Differentiation of HL-60 cells (CD11b expression as multiple of DMSO control) (HL-60 cells [6]) | Differentiation of HL-60 promyelocytic leukemia cells in vitro (HL-60 cells [7])
N[C@@H](CCC(=O)N[C@@H](CS(=O)(=O)Cc1ccc([N+](=O)[O-])o1)C(=O)N[C@@H](C(=O)O)c1ccccc1)C(=O)O [Compound 14A, L-γ-glutamyl-3-[(5-nitrofuran-2-ylmethyl)sulfonyl]-L-alanyl-D-phenylglycine] | 52 | 3.2 | 100 |  |  |  |  | 
CCOC(=O)[C@@H](N)CCC(=O)N[C@@H](CSCc1ccccc1)C(=O)N[C@@H](C(=O)OCC)c1ccccc1 [TLK199] |  |  |  | chemopotentiation activity in an animal model | myelostimulant activity in humans; also recorded: multilineage hematologic improvement | well tolerated | enhances differentiation | induce the differentiation of HL-60 promyelocytic leukemia cells
